Laboratory results reported in US20250206732A1, “COMPOUNDS AND METHODS FOR THE TARGETED DEGRADATION OF KRAS” (Arvinas Operations, Inc., priority 2022, published 2025).

Molecular target: T1, AsPC-1 HiBiT-KRASG12D (Homo sapiens, UniProt P01116, G12D)
T1 construct: insert the HiBiT tag onto the N-terminus of one or more of the endogenous KRAS alleles; endogenous in cells; host or cells: AsPC-1 (ATCC CRL-1682), CRISPR-Cas9 knock-in clone, one tagged allele
Assay: HiBiT degradation assay (G12D), AsPC-1 HiBiT-KRASG12D cells
Assay type: cell-based
Conditions: 24 hours treatment; for Dmax: ASPC1, AsPC-1 HiBiT-KRASG12D cells, maximum degradation observed; for DC50: AsPC-1 HiBiT-KRASG12D cells, HiBiT luminescence
Procedure, shortened: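 24 h cmpd treatment, 37° C/5% CO2, AsPC-1 HiBiT-KRASG12D clone (CRISPR N-term tag). Alamar blue 1×, 4 h, fluorescence. PBS wash, Nano-Glo HiBiT lytic reagent, 45 min RT, luminescence. Triplicates.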

T1 sequence (P01116 1-188 isoform P01116-2 G12D): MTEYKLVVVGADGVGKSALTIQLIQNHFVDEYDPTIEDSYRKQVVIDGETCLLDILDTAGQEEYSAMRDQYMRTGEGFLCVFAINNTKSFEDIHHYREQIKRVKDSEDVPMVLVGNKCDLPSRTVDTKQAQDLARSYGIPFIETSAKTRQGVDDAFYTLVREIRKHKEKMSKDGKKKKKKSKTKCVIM

SMILES	Dmax [%]	DC50 [nM]
Cc1ncsc1-c1ccc([C@H](C)NC(=O)[C@@H]2C[C@@H](O)CN2C(=O)[C@@H](c2cc(N3CCN(C(=O)OC[C@@H]4CC[C@@]5(COc6nc(N7CC8CCC(C7)N8)c7cnc(-c8cc(O)cc(Cl)c8C8CC8)c(F)c7n6)CCCN45)CC3)no2)C(C)C)cc1 (relative stereo) [Compound 258, [(3S,8R)-8-[[7-(3-chloro-2-cyclopropyl-5-hydroxy-phenyl)-4-(3,8-diazabicyclo[3.2.1]octan-3-yl)-8-fluoro-pyrido[4,3-d]pyrimidin-2-yl]oxymethyl]-1,2,3,5,6,7-hexahydropyrrolizin-3-yl]methyl 4-[5-[(1R)-1-[(2S,4R)-4-hydroxy-2-[[(1S)-1-[4-(4-methylthiazol-5-yl)phenyl]ethyl]carbamoyl]pyrrolidine-1-carbonyl]-2-methyl-propyl]isoxazol-3-yl]piperazine-1-carboxylate]	80 to 100	< 600
C#Cc1c(F)ccc2cccc(-c3ncc4c(N5CC6CCC(C5)N6)nc(OC[C@]56CCCN5[C@H](COC(=O)N5CCN(c7cc(C(C(=O)N8C[C@H](O)C[C@H]8C(=O)N[C@@H](C)c8ccc(-c9scnc9C)cc8)C(C)C)on7)CC5)CC6)nc4c3F)c12 (single isomer, unassigned) [Compound 270, [(3S,7aR)-7a-{[(4-{3,8-diazabicyclo[3.2.1]octan-3-yl}-7-(8-ethynyl-7-fluoronaphthalen-1-yl)-8-fluoropyrido[4,3-d]pyrimidin-2-yl)oxy]methyl}-hexahydro-1H-pyrrolizin-3-yl]methyl 4-{5-[(2R*)-1-[(2S,4R)-4-hydroxy-2-{[(1S)-1-[4-(4-methyl-1,3-thiazol-5-yl)phenyl]ethyl]carbamoyl}pyrrolidin-1-yl]-3-methyl-1-oxobutan-2-yl]-1,2-oxazol-3-yl}piperazine-1-carboxylate]	80 to 100	< 600
CCc1cccc2cc(O)cc(-c3ncc4c(N5CC6CCC(C5)N6)nc(OC[C@]56CCCN5[C@H](COC(=O)N5CC7(C5)CN(c5cc([C@H](C(=O)N8C[C@H](O)C[C@H]8C(=O)N[C@@H](C)c8ccc(-c9scnc9C)cc8)C(C)C)on5)C7)CC6)nc4c3F)c12 [Compound 340, [(3S,8R)-8-[[4-(3,8-diazabicyclo[3.2.1]octan-3-yl)-7-(8-ethyl-3-hydroxy-1-naphthyl)-8-fluoro-pyrido[4,3-d]pyrimidin-2-yl]oxymethyl]-1,2,3,5,6,7-hexahydropyrrolizin-3-yl]methyl 6-[5-[(1S)-1-[(2S,4R)-4-hydroxy-2-[[(1S)-1-[4-(4-methylthiazol-5-yl)phenyl]ethyl]carbamoyl]pyrrolidine-1-carbonyl]-isobutyl]isoxazol-3-yl]-2,6-diazaspiro[3.3]heptane-2-carboxylate]	80 to 100	< 600
CCc1cccc2cc(O)cc(-c3ncc4c(N5CC6CCC(C5)N6C=O)nc(OCCN5CCC(CC6CN(c7cc([C@@H](C(=O)N8C[C@H](O)C[C@H]8C(=O)N[C@@H](C)c8ccc(-c9scnc9C)cc8)C(C)C)on7)C6)CC5)nc4c3F)c12 [Compound 247]		> 3000
CCc1cccc2cc(O)cc(-c3ncc4c(N5CC6CCC(C5)N6)nc(OCCN5CCC(N(C)c6cc([C@@H](C(=O)N7C[C@H](O)C[C@H]7C(=O)N[C@@H](C)c7ccc(-c8scnc8C)cc7)C(C)C)on6)CC5)nc4c3F)c12 (relative stereo) [Compound 137, (2S,4R)-1-[(2R*)-2-{3-[(1-{2-[(4-{3,8-diazabicyclo[3.2.1]octan-3-yl}-7-(8-ethyl-3-hydroxynaphthalen-1-yl)-8-fluoropyrido[4,3-d]pyrimidin-2-yl)oxy]ethyl}piperidin-4-yl)(methyl)amino]-1,2-oxazol-5-yl}-3-methylbutanoyl]-4-hydroxy-N-[(1S)-1-[4-(4-methyl-1,3-thiazol-5-yl)phenyl]ethyl]pyrrolidine-2-carboxamide]	20 to 60	1000 to 3000
CCc1cccc2cc(O)cc(-c3ncc4c(N5CC6CCC(C5)N6)nc(OC[C@@]56CCCN5[C@H](CN5CCN(c7cc([C@@H](C(=O)N8C[C@H](O)C[C@H]8C(=O)N[C@@H](C)c8ccc(-c9scnc9C)cc8)C(C)C)on7)CC5)CC6)nc4c3F)c12 [Compound 95, (2S,4R)-1-[(2S)-2-[3-(4-{[(3S,7aS)-7a-{[(4-{3,8-diazabicyclo[3.2.1]octan-3-yl}-7-(8-ethyl-3-hydroxynaphthalen-1-yl)-8-fluoropyrido[4,3-d]pyrimidin-2-yl)oxy]methyl}-hexahydro-1H-pyrrolizin-3-yl]methyl}piperazin-1-yl)-1,2-oxazol-5-yl]-3-methylbutanoyl]-4-hydroxy-N-[(1S)-1-[4-(4-methyl-1,3-thiazol-5-yl)phenyl]ethyl]pyrrolidine-2-carboxamide]		> 3000
CCc1cccc2cc(O)cc(-c3ncc4c(N5CCCCCC5)nc(OC[C@@H]5CC[C@@H](COC(=O)N6CCN(c7cc([C@H](C(=O)N8C[C@H](O)C[C@H]8C(=O)N[C@@H](C)c8ccc(-c9scnc9C)cc8)C(C)C)on7)CC6)N5C)nc4c3F)c12 [Compound 272, [(2S,5S)-5-[[4-(azepan-1-yl)-7-(8-ethyl-3-hydroxy-1-naphthyl)-8-fluoro-pyrido[4,3-d]pyrimidin-2-yl]oxymethyl]-1-methyl-pyrrolidin-2-yl]methyl 4-[5-[(1R)-1-[(2S,4R)-4-hydroxy-2-[[(1S)-1-[4-(4-methylthiazol-5-yl)phenyl]ethyl]carbamoyl]pyrrolidine-1-carbonyl]-2-methyl-propyl]isoxazol-3-yl]piperazine-1-carboxylate]	60 to 80	< 600
CCc1cccc2cc(O)cc(-c3ncc4c(N5CC6CCC(C5)N6)nc(OC[C@]56CCCN5[C@@H](COC(=O)N(C)Cc5cc([C@H](C(=O)N7C[C@H](O)C[C@H]7C(=O)N[C@@H](C)c7ccc(-c8scnc8C)cc7)C(C)C)on5)CC6)nc4c3F)c12 [Compound 92, [(3R,7aR)-7a-{[(4-{3,8-diazabicyclo[3.2.1]octan-3-yl}-7-(8-ethyl-3-hydroxynaphthalen-1-yl)-8-fluoropyrido[4,3-d]pyrimidin-2-yl)oxy]methyl}-hexahydro-1H-pyrrolizin-3-yl]methyl N-({5-[(2R)-1-[(2S,4R)-4-hydroxy-2-{[(1S)-1-[4-(4-methyl-1,3-thiazol-5-yl)phenyl]ethyl]carbamoyl}pyrrolidin-1-yl]-3-methyl-1-oxobutan-2-yl]-1,2-oxazol-3-yl}methyl)-N-methylcarbamate]	80 to 100	< 600
Cc1ncsc1-c1ccc([C@H](C)NC(=O)[C@@H]2C[C@@H](O)CN2C(=O)[C@@H](c2cc(N3CCN(C(=O)OC[C@@H]4CC[C@@]5(COc6nc(N7CC8CCC(C7)N8)c7cnc(-c8cc(O)cc(Cl)c8C(F)(F)F)c(F)c7n6)CCCN45)CC3)no2)C(C)C)cc1 (relative stereo) [Compound 257, [(3S,8R)-8-[[7-[3-chloro-5-hydroxy-2-(trifluoromethyl)phenyl]-4-(3,8-diazabicyclo[3.2.1]octan-3-yl)-8-fluoro-pyrido[4,3-d]pyrimidin-2-yl]oxymethyl]-1,2,3,5,6,7-hexahydropyrrolizin-3-yl]methyl 4-[5-[(1R)-1-[(2S,4R)-4-hydroxy-2-[[(1S)-1-[4-(4-methylthiazol-5-yl)phenyl]ethyl]carbamoyl]pyrrolidine-1-carbonyl]-2-methyl-propyl]isoxazol-3-yl]piperazine-1-carboxylate]	80 to 100	< 600
